Data on 20 compounds can be found in US5538960A, “Hydrazono-5β, 14β-androstane derivatives active on the cardiovascular system, and pharmaceutical compositions containing same” (SIGMA-TAU Industrie Farmaceutiche Riunite S.p.A., priority 1992, dated 1996).

Assay [1] deals with spontaneous hypertensive rats (MHS). Put plainly: effect of 5 week-treatment on the development of hypertension in rats (SBP and HR, tail cuff method). The settings on record: 20 mg/Kg/os daily in Methocel 0.5% w/v, 5 weeks, 7 rats; for SBP: controls 172 +/- 3.5; for HR: controls 380 +/- 9.0. The class given is in vivo, rat. The procedure: Systolic blood pressure (SBP) and heart rate (HR) were measured, by the tail cuff method, in young prehypertensive male rats (MHS or SHR) strains before the development of hypertension (4 weeks of age) for recording the basal values of SBP. Groups of 7 rats were formed and subdivided in control and treated groups. The compound, suspended in Methocel 0.5 % (w/v), was orally given daily for at least 5 weeks to the treated groups. The control group received only Methocel.
SBP and HR were measured weekly 6 and 24 hrs after treatment. After 5 weeks of treatment, when hypertension was fully developed in the control group (9 weeks of age), washout was started for at least one week, to verify whether the treatment mantained blood pressure low or reestablished the basal values. […] (Takeda K. et al., Japan J. Pharmacol, 1979, 29,171; Takeda K. et al. Japan J. Pharmacol., 1982, 32, 283; Richer C. et al. Eur. J. Pharmacol, 1978, 47,393).

Assay [2] has as its target T1, Na^+,K+ -ATPase (Canis lupus familiaris, UniProt P50997).
T1 construct: Na^+,K+ -ATPase receptor purified according to Jorghensen; from tissue
Put plainly: inhibition of the activity of the purified Na^+,K+ -ATPase measured as % of hydrolysis of ^32 P-ATP. It counts as biochemical. The source says:
(§1) To test the affinity for the receptor site of the Na^+,K+ -ATPase and the agonist or antagonist activity on the enzyme, the following tests were used:
b) inhibition of the activity of the purified Na^+,K+ -ATPase measured as % of hydrolysis of ^32 P-ATP in presence and in absence of the tested compound (Mall F. et al., Biochem. Pharmacol, 1984, 33, 47)

In assay [3] the target is T1, Na^+,K+ -ATPase. Put plainly: displacement of the specific ^3 H-ouabain binding from the Na^+,K+ -ATPase receptor.
From the text: as §1
a) displacement of the specific ^3 H-ouabain binding from the Na^+,K+ -ATPase receptor purified according to Jorghensen (Jorghensen P., BBA, 1974, 356, 36) and Erdmann (Erdmann E. et al., Arzneim. Forsh., 1984, 34, 1314);

Assay [4] concerns Na^+,K+ -ATPase. The settings on record: Gelbart and Thomas 1978; Schonfeld and Repke 1988; Thomas et al. 1974; Boutagy et al. 1973; cited from earlier work.
The conditions of assay [5]: Gelbart and Thomas 1978; Schonfeld and Repke 1988; cited from earlier work.
[6] abbreviates: purified Na^+,K+ -ATPase, hydrolysis of ^32 P-ATP, read-out: Inhibitory Activity log IC50 (converted).
Setting [7] is: purified Na^+,K+ -ATPase receptor, read-out: Binding ^3 H-Ouab. Displacement log IC50 (converted).
Setting [8] is: purified Na^+,K+ -ATPase, hydrolysis of ^32 P-ATP.

One may read the IC50 as the concentration that inhibits the measured activity by half.

For `C[C@]12CC[C@H](OCCCN)C[C@H]1CC[C@@H]1[C@@H]2CC[C@]2(C)[C@@H](/C=N/NC(=N)N)CC[C@]12O` [Comp. I-al, (E)-3β-(3-Aminopropoxy)-17β-guanidinoiminomethyl-5β-androstane-14β-ol], in assay [1], the SBP is on record as 153 +/- 6.3 mm Hg and the HR is listed as 380 +/- 10.0 beats/min. Further, the concentration for half-maximal inhibition (IC50) at Na^+,K+ -ATPase [2] (setting [6]) is 0.794 µM. In addition, the IC50 at Na^+,K+ -ATPase [3] was 0.0398 µM.
Regarding `CSC(=N)N/N=C/[C@H]1CC[C@]2(O)[C@@H]3CC[C@@H]4C[C@@H](O)CC[C@]4(C)[C@H]3CC[C@]12C` [Comp. I-ak, (E)-17β-(3-Methylisothiosemicarbazono)methyl-5β-androstane-3β,14-diol], the 50% inhibitory concentration (IC50) against Na^+,K+ -ATPase [2] is 31.6 µM; at Na^+,K+ -ATPase [3] it was 2 µM.
On to `CN1CCN=C1N/N=C/[C@H]1CC[C@]2(O)[C@@H]3CC[C@@H]4C[C@@H](O)CC[C@]4(C)[C@H]3CC[C@]12C` [Comp. I-ac, (E)-17β-(1-Methyl-2-imidazolin-2-yl)hydrazono-methyl-5β-androstane-3β,14β-diol], for which the values for the half-maximal inhibitory concentration (IC50) at Na^+,K+ -ATPase [2] and on Na^+,K+ -ATPase [3] were 12.6 µM and 1 µM, respectively.
Regarding `C[C@]12CC[C@H](O)C[C@H]1CC[C@@H]1[C@@H]2CC[C@]2(C)[C@@H](/C=N/NC(=N)NC(=N)N)CC[C@]12O` [Comp. I-af, (E)-17β-(3-Amidino)guanidinoiminomethyl-5β-androstane-3β,14β-diol], the figures for the IC50 at Na^+,K+ -ATPase [2] and on Na^+,K+ -ATPase [3] were 7.94 µM and 0.2 µM, respectively.
Consider `CN(C)CCNC(=N)N/N=C/[C@H]1CC[C@]2(O)[C@@H]3CC[C@@H]4C[C@@H](O)CC[C@]4(C)[C@H]3CC[C@]12C` [Comp. I-ag, (E)-17β-(3-(2-Dimethylaminoethyl)guanidinoimino)methyl-5β-androstane-3β,14β-diol], for which, in assay [1], the SBP is 154 +/- 4.8 mm Hg and the HR is 390 +/- 5.9 beats/min. The IC50 against Na^+,K+ -ATPase [2] was 25.1 µM. Besides, the concentration for half-maximal inhibition (IC50) at Na^+,K+ -ATPase [3] (setting [7]) was 1 µM.
Take `C[C@]12CC[C@H](OCCCN)C[C@H]1CC[C@@H]1[C@@H]2CC[C@]2(C)[C@@H](/C=N/NC3=NCCN3)CC[C@]12O` [Comp. I-au, (E)-3β-(3-Aminopropoxy)-17β(2-imidazolin-2-yl)hydrazonomethyl-5β-androstane-14β-ol]: the IC50 on Na^+,K+ -ATPase [2] is 3.98 µM; at Na^+,K+ -ATPase [3], 0.1 µM.
Turning to `C[C@]12CC[C@H](O)C[C@H]1CC[C@@H]1[C@@H]2CC[C@]2(C)[C@@H](/C=N/NC3=NCCCN3)CC[C@]12O` [Comp. I-ae, (E)-17β-(1,4,5,6-Tetrahydro-2-pyrimidinyl)hydrazonomethyl-5β-androstane-3β,14β-diol], on Na^+,K+ -ATPase [2] (setting [8]), the “Inhibitory Activity log IC50” value is given as 5.3. The same compound gave an IC50 at Na^+,K+ -ATPase [3] of 0.251 µM.
On to `C[C@]12CC[C@H](O)C[C@H]1CC[C@@H]1[C@@H]2CC[C@]2(C)/C(=N/NC3=NCCN3)CC[C@]12O` [Comp. I-bo, (E)-17-(2-Imidazolin-2-yl)hydrazono-5β-androstane-3β,14β-diol], for which the IC50 is 39.8 µM on Na^+,K+ -ATPase [2] (setting [6]) and 2 µM on Na^+,K+ -ATPase [3] (setting [7]).
For `C[C@]12CC[C@H](O)C[C@H]1CC[C@@H]1[C@@H]2CC[C@]2(C)[C@@H](/C=N/NC3=NCCN3)CC[C@]12O` [Comp. I-aa, (E)-17β-(2-Imidazolin-2-yl)hydrazonomethyl-5β-androstane-3β,14β-diol], in assay [1], the SBP is 149 +/- 3.7 mm Hg and the HR was 370 +/- 11.2 beats/min. The “Inhibitory Activity log IC50” value on Na^+,K+ -ATPase [2] (setting [8]) came out at 5.2. Besides, at Na^+,K+ -ATPase [3], the IC50 is 0.2 µM.
On to `C/C(=N\N=C(N)N)[C@H]1CC[C@]2(O)[C@@H]3CC[C@@H]4C[C@@H](O)CC[C@]4(C)[C@H]3CC[C@]12C` [Comp. I-bk, (E)-20-Guanidinoimino-5β-pregnane-3β,14β-diol], for which the IC50 was 5.01 µM against Na^+,K+ -ATPase [2] and 0.251 µM at Na^+,K+ -ATPase [3].
Take `C[C@]12CC[C@H](OCCN3CCCC3)C[C@H]1CC[C@@H]1[C@@H]2CC[C@]2(C)[C@@H](/C=N/NC(=N)N)CC[C@]12O` [Comp. I-an, (E)-3β-(2-(1-pyrrolidinyl)ethoxy)-17β-guanidinoiminomethyl-5β-androstane-14β-ol]: in assay [1], the SBP is 150 +/- 5.1 mm Hg. The HR in assay [1] is 384 +/- 7.9 beats/min. Besides, the concentration for half-maximal inhibition (IC50) at Na^+,K+ -ATPase [2] (setting [6]) was 0.501 µM; at Na^+,K+ -ATPase [3] (setting [7]), 0.0398 µM.
Consider `C[C@]12CC[C@H](O)C[C@H]1CC[C@@H]1[C@@H]2CC[C@]2(C)[C@@](O)(/C=N/NC3=NCCN3)CC[C@]12O` [Comp. I-bn, (E)-17β-(2-Imidazolin-2-yl)hydrazonomethyl-5β-androstane-3β,14β,17α-triol], for which the results for the IC50 on Na^+,K+ -ATPase [2] and on Na^+,K+ -ATPase [3] were 12.6 µM and 3.98 µM, respectively.
Regarding `C[C@]12CC[C@H](O)C[C@H]1CC[C@@H]1[C@@H]2CC[C@]2(C)C(C=NNC(=N)N)CC[C@]12O` (stereo partly drawn) [17-Guanidinoiminomethyl-5β-androstane-3β,14β-diol], the “inhibition of Na^+,K+ -ATPase” value with Na^+,K+ -ATPase [4] is given as “weak inhibitors of Na^+,K+ -ATPase”. Further, the positive inotropic activity entry in assay [5] is recorded as “weak positive inotropic agents”.
On to `C[C@]12CCC(=NNC(=N)N)C[C@H]1CC[C@@H]1[C@@H]2CC[C@]2(C)[C@@H](/C=N/NC(=N)N)CC[C@]12O` [Comp. I-bi, 3-[(ZE)-Guanidinoimino]-17β-[(E)-guanidinoiminomethyl]-5β-androstane-14β-ol], for which the IC50 is 5.01 µM against Na^+,K+ -ATPase [2] and 0.126 µM at Na^+,K+ -ATPase [3].
Consider `C[C@]12CC[C@H](OCCN3CCCC3)C[C@H]1CC[C@@H]1[C@@H]2CC[C@]2(C)[C@@H](/C=N/NC3=NCCN3)CC[C@]12O` [Comp. I-aw, (E)-3β-(2-(1-Pyrrolidinyl)ethoxy)-17β-(2-imidazolin-2-yl)hydrazonomethyl-5β-androstane-14β-ol], for which the SBP in assay [1] is 151 +/- 5.2 mm Hg. Moreover, the HR in assay [1] is 388 +/- 9.0 beats/min. Also, the IC50 was 0.398 µM at Na^+,K+ -ATPase [2] (setting [6]) and 0.1 µM at Na^+,K+ -ATPase [3] (setting [7]).
Turning to `C[C@]12CC[C@H](O)C[C@H]1CC[C@@H]1[C@@H]2CC[C@]2(C)[C@@](O)(/C=N/NC(=N)N)CC[C@]12O` [Comp. I-bl, (E)-17β-Guanidinoiminomethyl-5β-androstane-3β,14β,17α-triol], the results for the IC50 on Na^+,K+ -ATPase [2] (setting [6]) and on Na^+,K+ -ATPase [3] (setting [7]) were 39.8 µM and 1.58 µM, respectively.
As for `C[C@]12CC[C@H](OCCN3CCCC3)C[C@H]1CC[C@@H]1[C@@H]2CC[C@]2(C)[C@@H](/C=N/NC(N)=O)CC[C@]12O` [Comp. I-as, (E)-3β-(2-(1-Pyrrolidinyl)ethoxy)-17β-semicarbazonomethyl-5β-androstane-14β-ol], the IC50 at Na^+,K+ -ATPase [2] (setting [6]) was 39.8 µM; on Na^+,K+ -ATPase [3], 1.58 µM.
With `C[C@]12CC[C@H](O)C[C@H]1CC[C@@H]1[C@@H]2CC[C@]2(C)C(=NNC(=N)N)CC[C@]12O` [17-guanidinoimino-5β-androstane-3β,14β-diol], the “inhibition of Na^+,K+ -ATPase” value with Na^+,K+ -ATPase [4] is “weak inhibitors of Na^+,K+ -ATPase”. In addition, the positive inotropic activity entry in assay [5] was “weak positive inotropic agents”.
Turning to `C[C@]12CC[C@H](O)C[C@H]1CC[C@@H]1[C@@H]2CC[C@]2(C)[C@@H](/C=N/N=C(\N)Nc3ccccc3)CC[C@]12O` [Comp. I-ah, (E)-17β-(3-Phenylguanidino)iminomethyl-5β-androstane-3β,14β-diol], the IC50 on Na^+,K+ -ATPase [2] is 100 µM; on Na^+,K+ -ATPase [3] (setting [7]) it was 6.31 µM.
In the case of `C[C@]12CC[C@H](OCCCN)C[C@H]1CC[C@@H]1[C@@H]2CC[C@]2(C)[C@@H](/C=N/NC(N)=O)CC[C@]12O` [Comp. I-aq, (E)-3β-(3-Aminopropoxy)-17β-semicarbazonomethyl-5β-androstane-14β-ol], the IC50 at Na^+,K+ -ATPase [2] (setting [6]) was 39.8 µM; at Na^+,K+ -ATPase [3], 1.26 µM.
